Tests used:
Type in all cases: cell-based
GLUT1 = target: T1, GLUT1 (Homo sapiens, UniProt P11166); assay: glycolysis assay in DLD1 WT cells (rely on GLUT1); conditions: for IC50: DLD1-WT cells, 10 μM oligomycin, one hour
T1 construct: endogenous in cells; host or cells: DLD1 WT cancer cells
T1 sequence (P11166 1-492): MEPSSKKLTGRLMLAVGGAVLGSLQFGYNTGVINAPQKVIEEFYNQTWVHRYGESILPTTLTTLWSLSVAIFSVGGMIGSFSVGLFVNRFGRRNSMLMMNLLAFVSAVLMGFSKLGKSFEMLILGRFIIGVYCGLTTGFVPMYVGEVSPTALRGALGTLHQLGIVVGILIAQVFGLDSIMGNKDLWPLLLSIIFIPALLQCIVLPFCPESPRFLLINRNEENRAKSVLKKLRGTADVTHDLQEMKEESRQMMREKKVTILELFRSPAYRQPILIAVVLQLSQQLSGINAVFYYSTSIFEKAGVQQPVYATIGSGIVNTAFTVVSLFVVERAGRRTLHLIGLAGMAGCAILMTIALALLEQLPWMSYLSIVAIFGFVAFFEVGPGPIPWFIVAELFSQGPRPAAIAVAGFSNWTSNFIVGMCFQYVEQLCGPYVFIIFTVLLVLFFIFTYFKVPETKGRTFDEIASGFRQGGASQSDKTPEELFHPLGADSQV
Method: (§1) Cells were treated with GLUT inhibitors plus oligomycin and subsequently ATP levels were determined using Cell Titer Glo. […] FIG. 1B reports the IC50 of glycolysis inhibition for selected compounds.
(§2) Accordingly, we have investigated the use of inhibitors of GLUT transporters against activated pro-inflammatory immune cells, including but not limited to activated human CD4+ T cells. In order to understand what GLUT transporters are required to sustain glycolysis in activated T cells, we first utilized the syngeneic cancer cell lines DLD1 WT and DLD GLUT1−/− that rely on GLUT1 and GLUT3 expression, respectively, for glucose transport. Within this system, we have identified small molecules that simultaneously have the property of inhibiting both GLUT1 and GLUT3 mediated glucose transport. In addition, we have confirmed the GLUT1-selective nature of a published small molecule inhibitor of GLUT1 (Chem Med Chem. 2016 Oct. 19; 11(20):2261-2271).
(§3) Determination of glucose uptake/GLUT activity (glycolysis assay): HT1080 cells, DLD1 cells (WT and GLUT1−/−) and human CD4+ T cells were plated in 96-well plates. Cells were exposed to the combination of 10 μM Oligomycin (to block mitochondrial-derived ATP) and the glucose uptake inhibitors disclosed herein for one-hour, after which glycolytically-derived ATP was measured with the Cell Titer-Glo assay kit (Promega). Dose-response curves of the glucose uptake inhibitors disclosed herein were used to determine the IC50 for GLUT activity.

[1] = test system: activated human CD4+ T cells; assay: one-hour glycolysis assay in activated human CD4 T cells; conditions: human CD4 T cells activated 24 hours, one hour treatment plus oligomycin
Method: In FIG. 2A, human CD4 positive T cells were activated for 24 hours prior to a one hour treatment with the indicated glucose uptake inhibitors combined with 10 μM oligomycin. In FIG. 2B, human CD4 T cells were activated for 48 hours in the presence of the glucose uptake inhibitors. IL-17 and IL-2 secreted into the supernatant was measured by ELISA (R&D systems). Proliferation was measured by Cell Titer Glo (Promega). FIG. 2C lists the IC50 values (μM) for the glucose uptake inhibitors against activated T cell glycolysis, IL-17 secretion and proliferation. […] In FIG. 3A, human CD4 positive T cells were activated for 24 hours prior to a one hour treatment with Bay876 combined with 1 μM oligomycin. In FIG. 3B, human CD4 T cells were activated for 48 hours in the presence of Bay876. L-17 secreted into the supernatant was measured by ELISA (R&D systems). Proliferation was measured by Cell Titer Glo (Promega). […] At this time, secreted IL-17, IL-2 and relative cell number were measured (FIG. 2B, right panel). […] Cells were exposed to the combination of 10 μM Oligomycin (to block mitochondrial-derived ATP) and the glucose uptake inhibitors disclosed herein for one-hour, after which glycolytically-derived ATP was measured with the Cell Titer-Glo assay kit (Promega). […] IL-17 levels were measured by ELISA (R&D systems, Human IL-17 Quantikine ELISA kit). Proliferation was measured by Cell Titer Glo (Promega). […]

GLUT = assay: glycolysis assay (oligomycin + Cell Titer-Glo ATP readout) in HT1080 cells; conditions: 10 μM oligomycin, one hour, glycolytically-derived ATP
From the text: The combination of inhibitors of both oxidative phosphorylation and glycolysis synergistically suppress cellular ATP levels. Therefore, our assay utilizes the combination of our glucose uptake inhibitors with oligomycin, a well-characterized inhibitor of ATP synthase. Because oligomycin inhibits ATP derived from oxidative phosphorylation, any remaining ATP production is derived from glycolysis. By reading out cellular ATP levels using the Promega
Titer Glo kit, we can assess the extent of glycolysis inhibition by our glucose uptake inhibitors. Using this experimental set-up in HT1080 cancer cells, we determined the IC50 of glycolysis inhibition for the compounds.
as §3

GLUT3 = target: T2, GLUT3 (Homo sapiens, UniProt P11169); assay: glycolysis assay in DLD1 GLUT1−/− cells (rely on GLUT3); conditions: DLD1-KO (GLUT1−/−) cells; 10 μM oligomycin, one hour
T2 construct: endogenous in cells; host or cells: DLD1 GLUT1−/− (knock-out) cancer cells
T2 sequence (P11169 1-496): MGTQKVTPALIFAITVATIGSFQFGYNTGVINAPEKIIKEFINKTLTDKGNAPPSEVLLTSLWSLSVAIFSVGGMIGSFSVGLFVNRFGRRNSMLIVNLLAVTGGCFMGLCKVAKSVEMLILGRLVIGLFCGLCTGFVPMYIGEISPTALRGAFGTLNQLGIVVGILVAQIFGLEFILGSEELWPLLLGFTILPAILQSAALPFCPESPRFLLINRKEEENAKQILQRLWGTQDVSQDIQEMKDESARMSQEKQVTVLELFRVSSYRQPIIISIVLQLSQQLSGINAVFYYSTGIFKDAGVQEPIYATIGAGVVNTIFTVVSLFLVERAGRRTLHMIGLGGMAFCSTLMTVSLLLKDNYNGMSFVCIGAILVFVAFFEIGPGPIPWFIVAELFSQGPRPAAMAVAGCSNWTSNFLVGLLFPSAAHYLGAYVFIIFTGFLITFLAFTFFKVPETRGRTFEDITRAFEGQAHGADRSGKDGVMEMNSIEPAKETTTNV
Method: as §1, §2, §3

| SMILES | GLUT selectivity (inhibition of glycolysis) (GLUT1; DLD1 WT versus DLD1 GLUT1−/− cells) | glycolysis in activated T cells [1] | IC50 (GLUT) [nM] | IC50 (GLUT1) [nM] | IC50 (GLUT3) [nM] |
| --- | --- | --- | --- | --- | --- |
| Cc1c(NC(=O)c2cc(C(N)=O)nc3cc(F)ccc23)c(C(F)(F)F)nn1Cc1ccc(C#N)cc1 [Bay876] | selective for GLUT1 | neither inhibited glycolysis | – | – | – |
| CCC(C)NC(=O)COc1cccc(-c2nc(Nc3ccc(-c4cn[nH]c4)cc3)c3cc(OCCF)ccc3n2)c1 (centres unmarked) [Ex. 43, 2-(3-(4-((4-(1H-pyrazol-4-yl)phenyl)amino)-6-(2-fluoroethoxy)quinazolin-2-yl)phenoxy)-N-(sec-butyl)acetamide] | – | – | 46 | 34.4 | 58.9 |
| CCC(C)NC(=O)COc1cccc(-c2nc(Nc3ccc(-c4cn[nH]c4)cc3)c3cc(F)ccc3n2)c1 (centres unmarked) [Ex. 44, 2-(3-(4-((4-(1H-pyrazol-4-yl)phenyl)amino)-6-fluoroquinazolin-2-yl)phenoxy)-N-(sec-butyl)acetamide] | – | – | 123 | 91.2 | 159 |
| CC[C@H](C)NC(=O)COc1cccc(-c2nc(Nc3ccc(-c4cn[nH]c4)cc3)c3cc(OCCOC)ccc3n2)c1 [Ex. 45, (S)-2-(3-(4-((4-(1H-pyrazol-4-yl)phenyl)amino)-6-(2-methoxyethoxy)quinazolin-2-yl)phenoxy)-N-(sec-butyl)acetamide] | – | – | 25.1 | 25.2 | 40.6 |
| CC[C@H](C)NC(=O)COc1cccc(-c2nc(Nc3ccc(-c4cn[nH]c4)cc3)c3cc(OCCF)ccc3n2)c1 [Ex. 46, (S)-2-(3-(4-((4-(1H-pyrazol-4-yl)phenyl)amino)-6-(2-fluoroethoxy)quinazolin-2-yl)phenoxy)-N-(sec-butyl)acetamide] | – | – | 37.1 | 34.8 | 87 |
| CC[C@H](C)NC(=O)COc1cccc(-c2nc(Nc3ccc(-c4cn[nH]c4)cc3)c3cc(F)ccc3n2)c1 [Ex. 47, (S)-2-(3-(4-((4-(1H-pyrazol-4-yl)phenyl)amino)-6-fluoroquinazolin-2-yl)phenoxy)-N-(sec-butyl)acetamide] | – | – | 111 | 94.9 | 133 |
| CC[C@H](C)NC(=O)COc1cccc(-c2nc(Nc3ccc(-c4cn[nH]c4)cc3)c3cc(OC)ccc3n2)c1 [Ex. 48, (S)-2-(3-(4-((4-(1H-pyrazol-4-yl)phenyl)amino)-6-methoxyquinazolin-2-yl)phenoxy)-N-(sec-butyl)acetamide] | – | – | 81.5 | 71.6 | 110 |
| CC[C@@H](C)NC(=O)COc1cccc(-c2nc(Nc3ccc(-c4cn[nH]c4)cc3)c3cc(OCCOC)ccc3n2)c1 [Ex. 49, (R)-2-(3-(4-((4-(1H-pyrazol-4-yl)phenyl)amino)-6-(2-methoxyethoxy)quinazolin-2-yl)phenoxy)-N-(sec-butyl)acetamide] | – | – | 30.7 | 30.3 | 50.9 |
| CC[C@@H](C)NC(=O)COc1cccc(-c2nc(Nc3ccc(-c4cn[nH]c4)cc3)c3cc(OCCF)ccc3n2)c1 [Ex. 50, (R)-2-(3-(4-((4-(1H-pyrazol-4-yl)phenyl)amino)-6-(2-fluoroethoxy)quinazolin-2-yl)phenoxy)-N-(sec-butyl)acetamide] | – | – | 44.7 | 38.5 | 72.1 |
| CC[C@@H](C)NC(=O)COc1cccc(-c2nc(Nc3ccc(-c4cn[nH]c4)cc3)c3cc(F)ccc3n2)c1 [Ex. 51, (R)-2-(3-(4-((4-(1H-pyrazol-4-yl)phenyl)amino)-6-fluoroquinazolin-2-yl)phenoxy)-N-(sec-butyl)acetamide] | – | – | 113 | 106 | 125 |
| CC[C@@H](C)NC(=O)COc1cccc(-c2nc(Nc3ccc(-c4cn[nH]c4)cc3)c3cc(OC)ccc3n2)c1 [Ex. 52, (R)-2-(3-(4-((4-(1H-pyrazol-4-yl)phenyl)amino)-6-methoxyquinazolin-2-yl)phenoxy)-N-(sec-butyl)acetamide] | – | – | 92.1 | 81.6 | 118 |
| CCC(C)NC(=O)COc1cccc(-c2nc(Nc3ccc(-c4cn[nH]c4)cc3)c3ccc(F)cc3n2)c1 (centres unmarked) [Ex. 53, 2-(3-(4-((4-(1H-pyrazol-4-yl)phenyl)amino)-7-fluoroquinazolin-2-yl)phenoxy)-N-(sec-butyl)acetamide] | – | – | 283 | 222 | 271 |
| CC[C@H](C)NC(=O)COc1cccc(-c2nc(Nc3ccc(-c4cn[nH]c4)cc3)c3ccc(F)cc3n2)c1 [Ex. 54, (S)-2-(3-(4-((4-(1H-pyrazol-4-yl)phenyl)amino)-7-fluoroquinazolin-2-yl)phenoxy)-N-(sec-butyl)acetamide] | – | – | 196 | 146 | 290 |
| CC[C@@H](C)NC(=O)COc1cccc(-c2nc(Nc3ccc(-c4cn[nH]c4)cc3)c3ccc(F)cc3n2)c1 [Ex. 55, (R)-2-(3-(4-((4-(1H-pyrazol-4-yl)phenyl)amino)-7-fluoroquinazolin-2-yl)phenoxy)-N-(sec-butyl)acetamide] | – | – | 190 | 192 | 238 |
